Our source for the TGI and GI50 values is PubChem BioAssay (NCI).

Among the test systems are ACHN renal; EKVX NSCLC; HCT-15 colon; LOX IMVI melanoma; M14 melanoma; MALME-3M melanoma; SF-268 CNS; SK-MEL-2 melanoma; SK-MEL-28 melanoma; SNB-19 CNS.
What all share (test): inhibition of tumour cell growth, NCI panel, 48 h

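48-hour exposure; five concentrations; linearly interpolated endpoints. GI50: concentration for 50% inhibition of growth. Definition used: TGI = concentration required for complete inhibition of growth.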

On to `Cn1c(=O)c(N=Nc2c(=O)n(C)c(=O)n3c2[nH]c2ccccc23)c2[nH]c3ccccc3n2c1=O`, for which the TGI in the test on ACHN renal, in the test on EKVX NSCLC, in the test with HCT-15 colon, in the test on LOX IMVI melanoma, in the test with M14 melanoma and in the test with MALME-3M melanoma was over 100 µM in each case. For the same molecule, the TGI in the test on SF-268 CNS was over 100 µM; in the test with SK-MEL-2 melanoma, over 100 µM; with SK-MEL-28 melanoma it was over 100 µM; with SNB-19 CNS, 61.1 µM.

In the case of `C/C(=N/O)c1cccc(Nc2cc(-n3nnc4ccccc43)nc3ccccc23)c1`, the GI50 with ACHN renal was 14.2 µM; in the test on EKVX NSCLC, 8.07 µM; in the test with HCT-15 colon it was 11.4 µM; with LOX IMVI melanoma, 24.2 µM; in the test on M14 melanoma it was 7.48 µM; in the test on MALME-3M melanoma, 16.8 µM. For the same molecule, the GI50 was 17.2 µM with SF-268 CNS, 28 µM with SK-MEL-2 melanoma, 21.1 µM in the test on SK-MEL-28 melanoma and 25.7 µM in the test on SNB-19 CNS. For the same molecule, the TGI was 46.6 µM in the test on ACHN renal; over 32 µM with EKVX NSCLC; 32.8 µM with HCT-15 colon; 93 µM in the test on LOX IMVI melanoma; 20.3 µM in the test on M14 melanoma; 48 µM with MALME-3M melanoma. The TGI in the test with SF-268 CNS was over 64 µM; in the test with SK-MEL-2 melanoma, over 63.2 µM; with SK-MEL-28 melanoma, over 68 µM; in the test on SNB-19 CNS, over 100 µM.

In the case of `COC(=O)/C(=N\NC(C)(C)C)C(C(=O)OC)C(=O)C(=O)Nc1cc(Cl)ccc1Cl` (centres undefined), the TGI in the test with ACHN renal, in the test with EKVX NSCLC, with HCT-15 colon, with LOX IMVI melanoma, in the test with M14 melanoma and in the test with MALME-3M melanoma was over 100 µM throughout. Further, the TGI in the test on SF-268 CNS, in the test on SK-MEL-2 melanoma, with SK-MEL-28 melanoma and with SNB-19 CNS was over 100 µM each time.

On to `Nc1ncnc2c1ncn2C1OC(CSCC(F)(F)F)C(O)C1O` (centres undefined), for which the TGI with ACHN renal, with EKVX NSCLC, in the test on HCT-15 colon, in the test with LOX IMVI melanoma, in the test on M14 melanoma and with MALME-3M melanoma was over 100 µM throughout. In addition, the TGI in the test on SF-268 CNS, in the test with SK-MEL-2 melanoma, with SK-MEL-28 melanoma and in the test on SNB-19 CNS was over 100 µM throughout.

In the case of `CCOC(=O)Cc1nc2ccc3c(c2[nH]c1=O)C(=O)c1ccccc1C3=O`, the TGI was over 100 µM with ACHN renal; 28.5 µM in the test with EKVX NSCLC; over 100 µM with HCT-15 colon; over 100 µM in the test with LOX IMVI melanoma; over 100 µM with M14 melanoma; over 100 µM in the test with MALME-3M melanoma. The TGI in the test with SF-268 CNS, in the test on SK-MEL-2 melanoma, in the test with SK-MEL-28 melanoma and with SNB-19 CNS was over 100 µM in each case.

Take `CN(C)CCNC(=O)Cn1ccc(=O)c2cc([N+](=O)[O-])ccc21`: the TGI in the test with ACHN renal, in the test with EKVX NSCLC, with HCT-15 colon, in the test on LOX IMVI melanoma, in the test on M14 melanoma and in the test on MALME-3M melanoma was over 100 µM throughout. Further, the TGI in the test with SF-268 CNS, in the test on SK-MEL-2 melanoma, in the test on SK-MEL-28 melanoma and in the test with SNB-19 CNS was over 100 µM in each case.

For `COc1ccc(C2=Nn3c(nnc3-c3cc(Cl)cc(Cl)c3Cl)SC2)cc1`, the GI50 with ACHN renal was 0.859 µM; in the test with EKVX NSCLC, 0.622 µM; with HCT-15 colon, 0.52 µM; in the test with LOX IMVI melanoma, 0.568 µM; in the test with M14 melanoma, 0.349 µM; in the test with MALME-3M melanoma, 0.44 µM. Besides, the GI50 in the test on SF-268 CNS is 1.3 µM; in the test on SK-MEL-2 melanoma, 1.21 µM; in the test on SNB-19 CNS, 0.402 µM. Besides, the TGI was over 100 µM with ACHN renal; over 46.1 µM with EKVX NSCLC; over 100 µM in the test on HCT-15 colon; over 100 µM with LOX IMVI melanoma; over 34 µM in the test on M14 melanoma; over 50.5 µM with MALME-3M melanoma. Also, the TGI with SF-268 CNS was over 100 µM; with SK-MEL-2 melanoma it was over 55.7 µM; in the test on SK-MEL-28 melanoma, over 100 µM; in the test on SNB-19 CNS it was 55.1 µM.

Regarding `O=S(=O)(Nc1ccc(Br)cc1)c1ccc(-c2cnc(C3CC3)o2)cc1`, the GI50 in the test with ACHN renal was 4.9 µM; with EKVX NSCLC it was 3.39 µM; in the test on HCT-15 colon, 0.644 µM; with LOX IMVI melanoma, 2.41 µM; in the test with M14 melanoma, 1.41 µM; in the test on MALME-3M melanoma, 1.66 µM. Besides, the GI50 with SF-268 CNS was 5.05 µM; with SK-MEL-2 melanoma, 4.2 µM; in the test with SK-MEL-28 melanoma it was 10 µM; with SNB-19 CNS it was 3.98 µM. In addition, the TGI in the test with ACHN renal was found to be 17.5 µM; with EKVX NSCLC it was 17.5 µM; in the test on HCT-15 colon, 14.2 µM; in the test with LOX IMVI melanoma, 18 µM; with M14 melanoma it was 16.1 µM; in the test on MALME-3M melanoma, 17.8 µM. Besides, the TGI with SF-268 CNS came out at 22.4 µM; with SK-MEL-2 melanoma, 20.3 µM; in the test on SK-MEL-28 melanoma it was 22.9 µM; with SNB-19 CNS, 18.3 µM.
